Test results: paper PMC6154737, “Leishmanicidal Activity and Structure-Activity Relationships of Essential Oil Constituents” (Molecules : A Journal of Synthetic Chemistry and Natural …, 2017)
≈ marks a conversion by molar mass, not a printed value. Like-named read-outs stand apart in the source and are kept apart here.

Key:
[1] = Cytotoxicity on L929 fibroblasts (MTT assay); type: cell-based; settings: mouse, MTT, mean ± SD; for viability at 24 h, 50 µg mL^−1: 50 µg mL^−1, 24 h; for viability at 24 h, 100 µg mL^−1: 100 µg mL^−1, 24 h
Experimental: (§1) Culture of the mouse fibroblast cell line (L929, ATCC CCL-1) were maintained in Dulbecco′s Modified Eagle Medium (DMEM, Sigma-Aldrich, St. Louis, MO, USA) supplemented with 10% heat-inactivated FBS and 1% streptomycin/penicillin (5000 units + 5 mg mL^−1, Sigma-Aldrich, St. Louis, MO, USA), and kept in a humid atmosphere at 37 °C and 5% CO2.
(§2) Fibroblasts were distributed in 96-well plates (2 × 10^4 cells/well) and incubated for 24 h in a 5% CO2 atmosphere at 37 °C. After this period, the medium was removed and the adhered cells were treated with the compounds at concentrations of 50.0 and 100.0 μg mL^−1 for 24 h under the same incubation conditions. Untreated cells were used as controls and considered with 100% cell viability. After the treatment period, cell viability was determined by MTT assay as described in ISO 10993-5 [50], with modifications. For this, the cell monolayer was washed twice with PBS (pH 7.4), and then 200 μl MTT (0.5 mg mL^−1 in PBS, Sigma-Aldrich, St. Louis, MO, USA) was added to each well. The plates were again incubated under the same conditions as listed above, for a period of 3 h. After the incubation time, the MTT was aspirated and the formazan crystals were solubilized in 200 μL of DMSO. After 10 min, the optical density (OD) was measured on a microplate reader at the wavelength of 570 nm. The results were expressed as percentage of viability according to the following equation:(3) Viability=Absorbance (treated cell)/Absorbance (control cell) × 100
(§3) Each experiment was conducted in quadruplicate and repeated at least three times. Data were expressed as mean ± standard deviation (±SD).

L. chagasi promastigotes = settings: cited from earlier work
[2] = system: Leishmania amazonensis promastigotes; assay: In vitro leishmanicidal activity (resazurin viability) against promastigotes; type: cell-based; settings: for Activity against L. amazonensis promastigotes in words: concentrations up to 1000.0 μg mL^−1
Experimental: Culture of L. amazonensis (LTCP 9667 obtained by Giudice et al.) promastigotes were maintained at 24 °C in Schneider′s Drosophila medium (Sigma-Aldrich, St. Louis, MO, USA; pH 6.7) supplemented with 10% (v/v) inactivated fetal bovine serum (FBS, Gibco by Thermo Fisher Scientific, Carlsbad, CA, USA), ampicillin 500 mg m^−1, 1% and gentamicin 40 mg mL^−1, 0.1% (Sigma-Aldrich, St. Louis, MO, USA).
Promastigotes of L. amazonensis in log-phase growth were distributed in a 96-well plate (5 × 10^5 cells/well) and treated with the evaluated compounds solubilized in dimethyl sulfoxide (DMSO, Sigma-Aldrich, St. Louis, MO, USA) and diluted in Schneider′s medium in different concentrations (between 0.0 and 1000.0 μg mL^−1) and incubated for 24 h at 24 °C in a biochemical oxygen demand (BOD) incubator. Promastigotes incubated in the absence of test compounds were used as a negative control. Promastigotes treated with Amphotericin B (Sigma-Aldrich, St. Louis, MO, USA) were used as a positive control. The cellular viability of the parasites was evaluated using the colorimetric method of resazurin, adapted from Kulshrestha et al.. Briefly, after the treatment time, 50 μL of resazurin (2 mM mL^−1 in phosphate-buffered saline (PBS)) (Sigma-Aldrich, St. Louis, MO, USA) was added per well and the plates were again incubated for 6 h at 24 °C, then read in a spectrophotometer (Synerg H1, Biotek, Winooski, VT, USA) at 570 and 595 nm. Absorbance was used to calculate cell viability based on the following equation:(1) Viability (%)=Abs.570 nm−(Abs.595 nm × RO) test/Abs.570 nm –(Abs.595 nm × RO) control × 100 wherein:(2) RO= OD medium with resazurin in 570 nm−OD medium without resasurin in 570 nm/OD medium with resazurin in 595 nm−OD medium without resazurin in 595 nm
The IC50 values were obtained by a non-linear regression analysis from the viability values using the GraphPad Prism 5.0 program. All experiments were performed in triplicate from three independent experiments and the data were expressed as mean ± standard deviation (±SD).

[3] = system: promastigotes of L. infantum chagasi; parameters: method as in PMID 27591136; settings: up to the dose of 750 μg mL^−1; cited from earlier work
[4] = system: L. amazonensis promastigotes; settings: cited from earlier work
L929 fibroblasts = assay: Cytotoxicity on L929 fibroblasts (MTT assay); type: cell-based; settings: intensity scale of Rodrigues et al.; for Cytotoxicity class (symbol) at 50 µg mL^−1: 50 µg mL^−1, 24 h; for Cytotoxicity class (symbol) at 50 µg mL^−1 / Cytotoxicity class (symbol) at 100 µg mL^−1: MTT; for Cytotoxicity class (symbol) at 100 µg mL^−1: 100 µg mL^−1, 24 h
Experimental: as §1, §2, §3

[5] = system: L. donovani promastigotes; parameters: method as in PMID 18095647; settings: cited from earlier work
[6] = system: promastigotes of L. major; parameters: method as in PMID 24365244; settings: doses up to 400 μg mL^−1; cited from earlier work
[7] = system: promastigotes of L. infantum; parameters: method as in PMID 24365244; settings: doses up to 400 μg mL^−1; cited from earlier work
[8] = system: promastigotes of L. tropica; parameters: method as in PMID 24365244; settings: doses up to 400 μg mL^−1; cited from earlier work
L. panamensis = system: L. panamensis; parameters: method as in earlier work; settings: cited from earlier work
[9] = L. chagasi promastigotes, ref 28
[10] = Leishmania amazonensis, 24 h, promastigotes, 24 h incubation, resazurin method, mean ± SD of three independent experiments in triplicate, read-out: IC50
[11] = Leishmania amazonensis, 24 h, promastigotes, 24 h incubation, resazurin method, mean ± SD of three independent experiments in triplicate, read-out: IC50 (µg mL^−1)
[12] = Leishmania amazonensis, 24 h, read-out: IC50 (µg mL^−1)

| Compound | IC50 (L. chagasi promastigotes; [9]) [µg/mL] | IC50 [2, 10] [µM] | IC50 [2, 11] [µg/mL] | viability at 24 h, 50 µg mL^−1 ([1]; L929 fibroblast cells) [%] | viability at 24 h, 100 µg mL^−1 ([1]; L929 fibroblast cells) [%] | Cytotoxicity class (symbol) at 50 µg mL^−1 (L929 fibroblasts) | Cytotoxicity classification in words at 50.0 μg mL^−1 (L929 fibroblasts) | Cytotoxicity class (symbol) at 100 µg mL^−1 (L929 fibroblasts) | other results |
| --- | --- | --- | --- | --- | --- | --- | --- | --- | --- |
| C=C(C)[C@@H]1CC=C(C)C(=O)C1 [(−)-Carvone, (5R)-2-methyl-5-prop-1-en-2-ylcyclohex-2-en-1-one] | > 300.0 | 1300 ± 113 | 195 ± 16.9 | – | – | – | – | – | viability at 24 h, 50 µg mL^−1 [1]: 65.1 ± 4.7%; viability at 24 h, 100 µg mL^−1 [1]: 58.2 ± 4.2% |
| C=C[C@](C)(O)CCC=C(C)C [(−)-Linalool, (3R)-3,7-dimethylocta-1,6-dien-3-ol] | – | 1790 ± 156 | 276 ± 24 | 65.7 ± 8.2 | 66.7 ± 7.8 | – | – | – | Changes in the viability of promastigotes in words [3]: did not identify changes in the viability; IC50 ([4]; L. amazonensis promastigotes): 0.0043 µg/mL (≈ 0.0279 µM) |
| CC(C)[C@@H]1CC[C@@H](C)C[C@H]1O [(−)-Menthol, (1R,2S,5R)-5-methyl-2-propan-2-ylcyclohexan-1-ol] | – | 1270 ± 76.8 | 198 | 83.8 ± 8 | 81.2 ± 2.4 | ** (Non-cytotoxic (viability >80%)) | non-cytotoxic | ** (Non-cytotoxic (viability >80%)) | IC50 ([2]; promastigotes, 24 h incubation, resazurin method, mean ± SD of three independent experiments in triplicate, listed as (–)-Menthol (7)): 198.9 ± 12.0 µg/mL |
| C[C@@H]1[C@H](O)[C@@H](C)/C=C/C=C/C=C/C=C/C=C/C=C/C=C/[C@H](O[C@@H]2O[C@H](C)[C@@H](O)[C@H](N)[C@@H]2O)C[C@@H]2O[C@](O)(C[C@@H](O)C[C@@H](O)[C@H](O)CC[C@@H](O)C[C@@H](O)CC(=O)O[C@H]1C)C[C@H](O)[C@H]2C(=O)O [Amphotericin B, reference compound] | – | 0.054 ± 0.01 | 0.05 ± 0.01 | – | – | – | – | – | – |
| Cc1ccc(C(C)C)cc1O [Carvacrol, 2-methyl-5-propan-2-ylphenol] | 28.0 (≈ 186 µM) | – | – | 51.3 ± 3 | 46.1 ± 2.9 | – | – | * (Moderate cytotoxicity (viability between >30% and <50%)) | IC50 ([4]; L. amazonensis promastigotes, 72 h incubation, p-nitrophenol phosphate): 15.3 µg/mL (≈ 102 µM); Cytotoxicity classification in words at 100.0 μg mL^−1 (L929 fibroblasts): moderate cytotoxicity; IC50 (L. chagasi promastigotes; L. chagasi promastigotes, ref 27): 2.3 µg/mL (≈ 15.3 µM); IC50 ([2]; Leishmania amazonensis, 24 h): 169 ± 16 µM; IC50 [2, 12]: 25.4 ± 2.4 µg/mL |
| CC1=CCC2C(C1)C2(C)C (stereo not shown) [Compound 3-Carene, 4,7,7-trimethylbicyclo[4.1.0]hept-3-ene] | – | 532 ± 136 | 72.5 ± 18.5 | 84.1 ± 6.4 | 48.7 ± 6.7 | ** (Non-cytotoxic (viability >80%)) | non-cytotoxic | * (Moderate cytotoxicity (viability between >30% and <50%)) | Cytotoxicity classification in words at 100.0 μg mL^−1 (L929 fibroblasts): moderate cytotoxicity; IC50 [5]: 27.0 µg/mL (≈ 198 µM) |
| C=CCc1ccc(O)c(OC)c1 [Eugenol, 2-methoxy-4-prop-2-enylphenol] | – | – | – | 78.1 ± 7 | 63.1 ± 1.7 | – | – | – | IC50 (L. chagasi promastigotes; promastigote forms of L. chagasi): 56.1 µg/mL (≈ 342 µM); IC50 ([2]; Leishmania amazonensis, 24 h): 505 ± 37.8 µM; IC50 [2, 12]: 82.9 ± 6.2 µg/mL |
| CC1(C)[C@@H]2CC[C@@]1(C)[C@H](O)C2 [Isoborneol, (1R,3R,4R)-4,7,7-trimethylbicyclo[2.2.1]heptan-3-ol] | – | 1230 ± 63.5 | 190 ± 9.8 | 73.3 ± 9.4 | 72.9 ± 7.5 | – | – | – | Leishmanicidal activity in words [6]: No leishmanicidal activity was found; Leishmanicidal activity in words [7]: No leishmanicidal activity was found; Leishmanicidal activity in words [8]: No leishmanicidal activity was found |
| Cc1ccc(C(C)C)c(O)c1 [Thymol, 5-methyl-2-propan-2-ylphenol] | – | 178 ± 24.6 | 26.8 ± 3.7 | 64.5 ± 4 | 58.5 ± 6.7 | – | – | – | IC50 ([4]; L. amazonensis): 22.6 µg/mL (≈ 150 µM); IC50 (L. panamensis): 194.3 µg/mL (≈ 1290 µM) |
| Cc1ccc(C(C)C)cc1 [p-Cymene, 1-methyl-4-propan-2-ylbenzene] | 149.1 (≈ 1110 µM) | > 7450 | > 1000 | 91.2 ± 6.6 | 87.1 ± 6.7 | ** (Non-cytotoxic (viability >80%)) | non-cytotoxic | ** (Non-cytotoxic (viability >80%)) | Activity against L. amazonensis promastigotes in words [2]: no effect on the viability; Activity against L. amazonensis promastigotes in words ([2]; listed as p-cymene): did not exhibit any activity |
